{"source": "patent US20200268632A1", "about": "“ANTI-AGING AGENT AND ANTI-AGING METHOD” (priority 2017, published 2020)", "key": {"[1]": {"experiment": "Safety observation of the subjects during 24 weeks of ingestion (complaints, stool abnormality)", "format": "in vivo, human", "details": "healthy males and females aged 50 to 70, 100 or 200 mg/daily oral, ingestion for 24 weeks", "description": "(§1) Each group consisting of five healthy males and females aged 50 to 70 years in an unbiased age group ingested the above low dose capsule formulation once a day by 4 capsules for 24 weeks (total 10 subjects, a low dose group: 100 mg/daily ingestion). On the other hand, each group consisting of five healthy males and females aged 50 to 70 years in the unbiased age group ingested the above high dose capsule formulation once a day by 4 capsules for 24 weeks (total 10 subjects, a high dose group: 200 mg/daily ingestion). In order to conduct appropriate evaluations, those who had been regularly using medical products for chronic diseases, those who had been consuming healthy foods that may affect clinical research, and those who were currently participating in other clinical researches or clinical trials, or had participated in other clinical researches or clinical trials within the last three months were excluded from the subject for the evaluation. The capsule formulations were ingested at 10 am (between meals and fasting state) together with water or lukewarm water (oral administration)."}, "melatonin": {"system": "melatonin", "experiment": "Evaluation of melatonin secretion promoting effect: melatonin concentration in plasma during 24 weeks of oral ingestion", "format": "in vivo, human", "details": "for Change rate (24 weeks-0 weeks) of melatonin concentration in the plasma: mean ± SD", "description": "In order to confirm a change in the melatonin quantity before and after ingestion of the nicotinamide mononucleotide, a test was conducted on healthy males and females aged 50 to 70 years.\nAs a sample of Working Example 1, a capsule formulation containing the nicotinamide mononucleotide and starch (100 mg (low dose) and 200 mg (high dose) of the nicotinamide mononucleotide in 4 capsules) (manufactured by SHINKOWA PHARMACEUTICAL Co., Ltd.) was used.\nas §1\nMeasurement of the melatonin quantity in plasma was conducted by requesting the measurement to an external public organization according to a usual method. FIGS. 2a to 2c indicates transitions of the melatonin concentration (pg/ml) in the plasma for 24 weeks. FIG. 2a represents the transitions of the whole subjects; FIG. 2b represents the transitions of the male subjects; FIG. 2c represents the transitions of the female subjects. FIGS. 3a to 3c indicates change rates (%) of the blood melatonin concentration up to 24 weeks when the nicotinamide mononucleotide was orally administered to the subjects for 24 weeks. FIG. 3a represents the change rates of the whole subjects; FIG. 3b represents the change rates of the male subjects; FIG. 3c represents the change rates of the female subjects. Further, Table 1 indicates the numerical values of the melatonin concentration (pg/ml) in the plasma before the ingestion of the nicotinamide mononucleotide (0 weeks) and after the ingestion of the nicotinamide mononucleotide (24 weeks). In addition, the numerical values represent mean values ±standard deviation."}}, "data": [{"compound": "NC(=O)c1ccc[n+]([C@@H]2O[C@H](COP(=O)([O-])O)[C@@H](O)[C@H]2O)c1", "note": "[nicotinamide mononucleotide]", "values": [{"measurement": "unidentified complaints (abdominal pain, nausea, vomiting, headache) or stool abnormality", "setting": "[1]", "result": "did not show any unidentified complaint"}, {"measurement": "Change rate (24 weeks-0 weeks) of melatonin concentration in the plasma", "setting": "melatonin; female subjects, high dose group (200 mg/daily, oral)", "result": "6.03 ± 5.90", "unit": "pg/mL"}, {"measurement": "Change rate (24 weeks-0 weeks) of melatonin concentration in the plasma", "setting": "melatonin; female subjects, low dose group (100 mg/daily, oral)", "result": "2.21 ± 3.19", "unit": "pg/mL"}, {"measurement": "effect of ingestion on melatonin concentrations in plasma (FIGS. 2a-2c, 3a-3c)", "setting": "melatonin; healthy males and females aged 50 to 70, 100 or 200 mg/daily oral, up to 24 weeks", "result": "increased the melatonin concentrations in plasma at the high change rates"}, {"measurement": "Change rate (24 weeks-0 weeks) of melatonin concentration in the plasma", "setting": "melatonin; male subjects, high dose group (200 mg/daily, oral)", "result": "2.86 ± 3.10", "unit": "pg/mL"}, {"measurement": "Change rate (24 weeks-0 weeks) of melatonin concentration in the plasma", "setting": "melatonin; male subjects, low dose group (100 mg/daily, oral)", "result": "3.44 ± 3.57", "unit": "pg/mL"}, {"measurement": "melatonin concentration in the plasma after ingestion compared to before ingestion, statistical significance", "setting": "melatonin; whole subjects, both the low dose group and the high dose group, 24 weeks, p<0.05", "result": "a significant difference was observed"}, {"measurement": "Change rate (24 weeks-0 weeks) of melatonin concentration in the plasma", "setting": "melatonin; whole subjects, high dose group (200 mg/daily, oral)", "result": "4.45 ± 4.75", "unit": "pg/mL"}, {"measurement": "Change rate (24 weeks-0 weeks) of melatonin concentration in the plasma", "setting": "melatonin; whole subjects, low dose group (100 mg/daily, oral)", "result": "2.82 ± 3.26", "unit": "pg/mL"}]}]}
